Laboratory results as given in patent US11464751B2, “Use of fluoroethylnormemantine for the prevention and treatment of anxiety” (REST THERAPEUTICS, priority 2017, dated 2022).

Key:
naive rats (Wistar) [1] = experiment: Open-field test (locomotor activity and anxiety); assay type: in vivo, rat; conditions: for drowsiness effect / overall activity level of the animals: open field over 2 hours, FENM even at high doses, memantine 10 mg/kg
Description: (§1) Thus, to test state anxiety, several animal models are commonly used and have been validated by numerous studies: • open field test: This consists of forcibly exposing the animal (rat or mouse) to a new environment and observing its behavior. […] Locomotor activity and behavior are then assessed by recording the number of crossings of the grid lines, the frequency of retreats, the number of entries and the time spent in the central squares. This animal model is considered a good model of “normal” anxiety when adapting to a new environment. It has good predictability of human response to treatment (L. Prut, European Journal of Pharmacology 463 (2003) 3-33). The open-field test is also useful, when it is prolonged (behavioral recording time over 2 hours), as it allows monitoring the motor activity of the animals and thus their state of wakefulness, whereas measurements at short times give information on anxiety. • the light-dark box test: another animal model of anxiety is based on the aversive properties of an open-field space and on the comparison of exploratory activities in a lit compartment and in a dark compartment under the influence of anxiolytic substances (M Bourin, European Journal of Pharmacology 463 (2003) 55-65). This paradigm is based on rodents' innate aversion to bright places and on rodents' spontaneous exploratory behavior in response to stressful environments (new environment or light). The test device is divided into two compartments, one is small, dark and safe, the second is large, bright and stressful. This paradigm allows the prediction of anxiolytic or anxiogenic drug-like activities in mice. Passages between each compartment are a cue of exploration activity, while the time spent in each compartment reflects aversion. Anxiolytics, effective in humans, classic (benzodiazepines) as well as more recent anxiolytic compounds (serotonergic drugs or drugs acting on neuropeptide receptors) can be detected by this animal model which has the advantage of being simple and quick to use. • The open-field test with light gradient: the two models described above can be judiciously coupled in order to check the anxiolytic potential of a molecule, by eliminating the “burrow” effect induced by the presence of the dark compartment.
(§2) In the following examples, the effects of memantine, propranolol and fluoroethylnormemantine (FENM, the subject of the present invention) are studied in naive rats (Wistar) subjected to various tests related to depression or anxiety and then compared.
(§3) The test substances are administered to rats intraperitoneally in a volume of 5 ml/kg, 30 minutes before the behavioral tests are performed.
(§4) The injected solutions contain either of the molecules in the form of one of their salts, a hydrochloride (memantine·HCl and FENM·HCl) for the nitrogen derivatives and as such for propranolol, at the concentrations indicated below in a mixture of 95% (NaCl 0.9% ww in water)/5% ethanol. In each experiment, the dose per kilogram is referenced.
In this way, the animals are given a constant volume of solution (to the nearest difference in weight) equal to 5 ml/kg, or 1.5 ml for a 300 g rat.
(§5) For each paradigm, and each solution tested, 12 rats are subjected to injection and behavioral testing. The control solution is a saline solution.
• Open-field test: The locomotor activity of the animals and the “normal” anxiety associated with the discovery of an unknown environment are measured in an open field using a video monitoring system for 2 hours, 30 minutes after the injection of the solutions to be tested. The recorded data include, with a reading every 5 minutes, the time spent in the central squares, vertical activity, and the number of displacements.

naive rats (Wistar) [2] = experiment: Light-dark box test; assay type: in vivo, rat
Description: as §2, §3, §4, §5
In this example the light-dark box test was used. As it is based on rodents' innate aversion to light, the increase in time spent in the lighted compartment is therefore considered to reflect a lower level of anxiety.
The box used for this test is divided into a white behavior with high-power illumination (600 lux) and a black behavior with a lid (about 5 lux). The number of entries and the time spent in the illuminated compartment (anxiety zone) are recorded for 10 minutes by a video monitoring system. In addition, the system makes it possible to differentiate the periods between 0 and 5 minutes and between 5 and 10 minutes.

NMDA receptor = experiment: Affinity with the NMDA receptor; assay type: binding; conditions: compared with memantine
naive rats (Wistar) [3] = experiment: Open-field test with light gradient; assay type: in vivo, rat
Description: as §1, §2, §3, §4, §5
In this example the light-dark box test was modified by eliminating the compartmentalization of the box and using a high-intensity light gradient (600 lux). As it is based on rodents' innate aversion to light, the increase in time spent in the area closest to the light source is therefore considered to reflect a lower level of anxiety.
The animals are exposed to a 12-minute sequence, broken down into three parts, 4 minutes in darkness (ambient light of 5 lux), 4 minutes in the presence of the light gradient and 4 minutes again in darkness. Displacements are recorded in the same way as for the open-field test. The field of view is divided into 4 zones numbered from 1 to 4 according to the increasing distance from the light source.

[4] = 10 mg/kg i.p., 30 min before test, 0-5 min

NC12CC3CC(C1)CC(CCF)(C3)C2
Mean time spent in the central squares per time interval (naive rats (Wistar) [1]; 5 mg/kg i.p., 30 min before test, 0-5 min): 128.8 s
Vertical activity (naive rats (Wistar) [1]; 5 mg/kg i.p., 0-5 min): 40.67
Mean time spent in the central squares per time interval (naive rats (Wistar) [1]; 5 mg/kg i.p., 0-10 min): 216.8 s
Vertical activity (naive rats (Wistar) [1]; 5 mg/kg i.p., 0-10 min): 71.17
Mean time spent in the central squares per time interval (naive rats (Wistar) [1]; 5 mg/kg i.p., 0-120 min): 1563.6 s
Number of displacements (naive rats (Wistar) [1]; 5 mg/kg i.p., 0-120 min): 1600
Vertical activity (naive rats (Wistar) [1]; 5 mg/kg i.p., 0-120 min): 136.00
Mean time spent in the central squares per time interval (naive rats (Wistar) [1]; 5 mg/kg i.p., 5-10 min): 88.0 s
Vertical activity (naive rats (Wistar) [1]; 5 mg/kg i.p., 5-10 min): 30.50
Mean time spent in the central squares per time interval (naive rats (Wistar) [1]; [4]): 116.8 s
Vertical activity (naive rats (Wistar) [1]; 10 mg/kg i.p., 0-5 min): 52.33
Mean time spent in the central squares per time interval (naive rats (Wistar) [1]; 10 mg/kg i.p., 0-10 min): 226.7 s
Vertical activity (naive rats (Wistar) [1]; 10 mg/kg i.p., 0-10 min): 86.42
Mean time spent in the central squares per time interval (naive rats (Wistar) [1]; 10 mg/kg i.p., 0-120 min): 1803.8 s
Number of displacements (naive rats (Wistar) [1]; 10 mg/kg i.p., 0-120 min): 1800
Vertical activity (naive rats (Wistar) [1]; 10 mg/kg i.p., 0-120 min): 173.75
Mean time spent in the central squares per time interval (naive rats (Wistar) [1]; 10 mg/kg i.p., 5-10 min): 109.9 s
Vertical activity (naive rats (Wistar) [1]; 10 mg/kg i.p., 5-10 min): 34.08
Mean time spent in the central squares per time interval (naive rats (Wistar) [1]; 20 mg/kg i.p., 30 min before test, 0-5 min): 129.8 s
Vertical activity (naive rats (Wistar) [1]; 20 mg/kg i.p., 0-5 min): 47.33
Mean time spent in the central squares per time interval (naive rats (Wistar) [1]; 20 mg/kg i.p., 0-10 min): 235.7 s
Vertical activity (naive rats (Wistar) [1]; 20 mg/kg i.p., 0-10 min): 66.58
Mean time spent in the central squares per time interval (naive rats (Wistar) [1]; 20 mg/kg i.p., 0-120 min): 1692.8 s
Number of displacements (naive rats (Wistar) [1]; 20 mg/kg i.p., 0-120 min): 2100
Vertical activity (naive rats (Wistar) [1]; 20 mg/kg i.p., 0-120 min): 208.92
Mean time spent in the central squares per time interval (naive rats (Wistar) [1]; 20 mg/kg i.p., 5-10 min): 105.9 s
Vertical activity (naive rats (Wistar) [1]; 20 mg/kg i.p., 5-10 min): 19.25
drowsiness effect / overall activity level of the animals (naive rats (Wistar) [1]): does not generate the drowsiness effect
Time spent in the lighted compartment (naive rats (Wistar) [2]; 1 mg/kg i.p., 0-5 min): 42.4 s
Time spent in the lighted compartment (naive rats (Wistar) [2]; 1 mg/kg i.p., 0-10 min): 71.0 s
Time spent in the lighted compartment (naive rats (Wistar) [2]; 1 mg/kg i.p., 5-10 min): 28.6 s
Time spent in the lighted compartment (naive rats (Wistar) [2]; 3 mg/kg i.p., 0-5 min): 34.4 s
Time spent in the lighted compartment (naive rats (Wistar) [2]; 3 mg/kg i.p., 0-10 min): 67.5 s
Time spent in the lighted compartment (naive rats (Wistar) [2]; 3 mg/kg i.p., 5-10 min): 33.2 s
Time spent in the lighted compartment (naive rats (Wistar) [2]; 10 mg/kg i.p., 0-5 min): 96.8 s
Time spent in the lighted compartment (naive rats (Wistar) [2]; 10 mg/kg i.p., 0-10 min): 171.9 s
Time spent in the lighted compartment (naive rats (Wistar) [2]; 10 mg/kg i.p., 5-10 min): 75.0 s
time spent in the lighted compartment compared with the control (naive rats (Wistar) [2]; 10 mg/kg, Student's t-test p<0.01): large and significant increase
affinity with the NMDA receptor (measured in Ki) (NMDA receptor): same order of magnitude as that of memantine
Percentage of time spent in the area closest to the light source (naive rats (Wistar) [3]; 5 mg/kg i.p., Dark 1 (Habituation)): 32%
Percentage of time spent in the area closest to the light source (naive rats (Wistar) [3]; 5 mg/kg i.p., Dark 2 (Relief)): 30%
Percentage of time spent in the area closest to the light source (naive rats (Wistar) [3]; 5 mg/kg i.p., Light 600 lux (Stress)): 22%
anxiety effect (avoidance of the most strongly illuminated area) (naive rats (Wistar) [3]; 10 mg/kg dose): completely eliminated
Percentage of time spent in the area closest to the light source (naive rats (Wistar) [3]; 10 mg/kg i.p., Dark 1 (Habituation)): 29%
Percentage of time spent in the area closest to the light source (naive rats (Wistar) [3]; 10 mg/kg i.p., Dark 2 (Relief)): 34%
Percentage of time spent in the area closest to the light source (naive rats (Wistar) [3]; 10 mg/kg i.p., Light 600 lux (Stress)): 30%
Percentage of time spent in the area closest to the light source (naive rats (Wistar) [3]; 20 mg/kg i.p., Dark 1 (Habituation)): 39%
Percentage of time spent in the area closest to the light source (naive rats (Wistar) [3]; 20 mg/kg i.p., Dark 2 (Relief)): 29%
Percentage of time spent in the area closest to the light source (naive rats (Wistar) [3]; 20 mg/kg i.p., Light 600 lux (Stress)): 21%

CC12CC3CC(C)(C1)CC(N)(C3)C2 [Memantine, memantine]
Mean time spent in the central squares per time interval (naive rats (Wistar) [1]; [4]): 90.4 s
Vertical activity (naive rats (Wistar) [1]; 10 mg/kg i.p., 0-5 min): 11.33
Mean time spent in the central squares per time interval (naive rats (Wistar) [1]; 10 mg/kg i.p., 0-10 min): 136.8 s
Vertical activity (naive rats (Wistar) [1]; 10 mg/kg i.p., 0-10 min): 16.00
Mean time spent in the central squares per time interval (naive rats (Wistar) [1]; 10 mg/kg i.p., 0-120 min): 1874.8 s
Number of displacements (naive rats (Wistar) [1]; 10 mg/kg i.p., 0-120 min): 750
Vertical activity (naive rats (Wistar) [1]; 10 mg/kg i.p., 0-120 min): 60.08
Mean time spent in the central squares per time interval (naive rats (Wistar) [1]; 10 mg/kg i.p., 5-10 min): 46.3 s
Vertical activity (naive rats (Wistar) [1]; 10 mg/kg i.p., 5-10 min): 4.67
drowsiness effect / overall activity level of the animals (naive rats (Wistar) [1]): decreases the overall activity level
Time spent in the lighted compartment (naive rats (Wistar) [2]; 1 mg/kg i.p., 0-5 min): 34.2 s
Time spent in the lighted compartment (naive rats (Wistar) [2]; 1 mg/kg i.p., 0-10 min): 59.9 s
Time spent in the lighted compartment (naive rats (Wistar) [2]; 1 mg/kg i.p., 5-10 min): 25.7 s
Time spent in the lighted compartment (naive rats (Wistar) [2]; 3 mg/kg i.p., 0-5 min): 26.2 s
Time spent in the lighted compartment (naive rats (Wistar) [2]; 3 mg/kg i.p., 0-10 min): 34.3 s
Time spent in the lighted compartment (naive rats (Wistar) [2]; 3 mg/kg i.p., 5-10 min): 8.1 s
Time spent in the lighted compartment (naive rats (Wistar) [2]; 10 mg/kg i.p., 0-5 min): 31.0 s
Time spent in the lighted compartment (naive rats (Wistar) [2]; 10 mg/kg i.p., 0-10 min): 32.0 s
Time spent in the lighted compartment (naive rats (Wistar) [2]; 10 mg/kg i.p., 5-10 min): 0.9 s
time spent in the lighted compartment compared with the control (naive rats (Wistar) [2]; memantine 1, 3, 10 mg/kg): no effect was observed
